Measurements from article PMC5854708, “Grass Carp Prolactin Gene: Structural Characterization and Signal Transduction for PACAP-induced Prolactin Promoter Activity” (Scientific Reports, 2018).
Read-outs that look alike come from different tables or passages of the source.

How the values were obtained:
[1] = tested on: grass carp PRL promoter (pPRL(−1156).Luc) in αT3-1 cells; format: cell-based, grass carp (promoter); rat (αT3-1 cells, as printed); details: for effect on Forskolin-induced luciferase activity: Forskolin 100 nM
Experimental: The cells were then cultured for 18 hr recovery before drug treatment. (A) Time course analysis on the effect of oPACAP38 (6–48 hrs) on grass carp PRL promoter activity in αT3-1 cells. (B) αT3-1 cells over-expressed pPRL(−1156).LUC were treated for 24 hrs with increasing doses of oPACAP38. Effects of PACAP and VIP antagonists on PACAP-induced PRL mRNA expression were also investigated. In these experiments, αT3-1 cells over-expressed pPRL(−1156).LUC were challenged with oPACAP38 (10 nM, 24 hr) in the presence or absence of (C) the PACAP antagonist PACAP6-38 (10 nM) or (D) VIP antagonist (4-Cl-D-Phe6, Leu17)VIP (“VIP-R antagonist”, 100 nM).
After 18 h recovery, the cells were incubated with respective drugs. (A) αT3-1 cells over-expressed pPRL(−1156).LUC were treated for 24 hrs with increasing doses of cpt-cAMP (1–100 μM). (B) αT3-1 cells over-expressed pPRL(−1156).LUC were treated for 24 hrs with increasing doses of Forskolin (10–1000 nM). Effects of cAMP/PKA inhibitors on PACAP-induced PRL mRNA expression were then investigated. αT3-1 cells over-expressed pPRL(−1156).LUC were challenged with oPACAP38 (10 nM, 24 hr) in the presence or absence of (C) AC inhibitor MDL12330A (10 μM) or (D) PKA blocker H89 (10 μM).
After 18 h recovery, the cells were incubated with respective drugs. The cells were treated for 24 hr with increasing doses of (A) Ca^2+ ionophore A23187 or (B) L-type VSCC activator Bay K8644. Inhibiting extracellular Ca^2+ entry on PRL mRNA expression in carp pituitary cells was examined. In this study, αT3-1 cells over-expressed pPRL(−1156).LUC were treated with (C) oPACAP38 (10 nM, 24 hrs) or (D) Forskolin (100 nM, 24 hrs) in the Ca^2+-free medium (with different doses of EGTA).
After 18 h recovery, the cells were incubated with respective drugs.

[2] = tested on: PRL promoter; design: method as in 2 sources, one per row (each row's own in cited_ref): ref 2 = [2]; PMID 15731170; doi:10.1210/me.2004-0111; 2. Liu, J. C., Baker, R. E., Chow, W., Sun, C. K. & Elsholtz, H. P. Epigenetic mechanisms in the dopamine D2 receptor-dependent inhibition of the prolactin gene. Mol Endocrinol 19 , 1904–1917, doi:10. ||| ref 3 = [3]; PMID 1922085; doi:10.1210/mend-5-4-535; 3. Yan GZ Pan WT Bancroft C Thyrotropin-releasing hormone action on the prolactin promoter is mediated by the POU protein pit-1 Mol Endocrinol 1991 5 535 541 10.1210/mend-5-4-535 1922085; details: mammals, cited from earlier work
Text: (§1) Prolactin (PRL) is a pituitary hormone with diverse function. […] In mammals, transcription of PRL gene is regulated by multiple factors. […] Furthermore, sex steroid ...

[3] = tested on: PRL promoter / PRL transcript; design: method as in PMID 17904137; details: goldfish; cited from earlier work
Text: as §1

[4] = tested on: PRL gene transcription; design: method as in PMID 18006630, PMID 18022314; details: human; cited from earlier work
Text: as §1

[5] = tested on: PAC1 receptors; details: cited from earlier work
Text: (§2) PACAP and vasoactive intestinal peptide (VIP) are members of the glucagon/secretin peptide family and have been reported to play roles in PRL regulation. […] In contrast to VIP, the biological actions of PACAP on ...

[6] = tested on: PRL gene expression in GH4C1 cells; details: cited from earlier work
Text: as §2

[7] = tested on: PRL secretion / PRL gene expression; details: mammals, cited from earlier work
Text: as §2

[8] = 24 hr, MDL12330A 10 μM or H89 10 μM, n = 4
[9] = oPACAP38 10 nM, 24 hr, MDL12330A 10 μM or H89 10 μM, n = 4
[10] = LY294002 10 μM or Wortmannin 10 nM, n = 4
[11] = calmidazolium 1 μM or KN62 5 μM, oPACAP38 10 nM, 24 hrs, n = 4
[12] = calmidazolium 1 μM, W7 30 μM, W13 100 μM or KN62 5 μM, n = 4
[13] = U0126, PD169316 or SP600125, each 10 μM, n = 4
[14] = U0126, PD169316 or SP600125, each 10 μM, oPACAP38 10 nM, 24 hrs, n = 4
[15] = 24-hr, A23187 1–100 nM or Bay K8644 1–100 nM, n = 4
[16] = W7 30 μM or W13 100 μM, pre-treated 15 mins, PACAP 100 nM (Supplementary Fig. 4), 24 hours, n = 4

Cl.c1ccc(C2CCCC2NC2=NCCCCCCCCCCC2)cc1 (centres unmarked) [MDL12330A]
effect on basal luciferase activity [1, 8]: markedly suppressed | effect on oPACAP38-induced luciferase activity [1, 9]: totally abolished

NCCc1ccc(O)c(O)c1 [Dopamine]
effect on PRL promoter activity ([2]; via dopamine D2 receptor activation): inhibitory effect on PRL promoter activity | effect on PRL promoter activity [3]: inhibition of PRL promoter activity

Nc1ncnc2c1nc(Sc1ccc(Cl)cc1)n2C1OC2COP(=O)(O)OC2C1O (centres unmarked) [cpt-cAMP, 8-(4-chlorophenylthio)-cAMP]
effect on luciferase activity expression ([1]; 24 hrs, cpt-cAMP 1–100 μM, n = 4): dose-dependently increased

O=c1cc(N2CCOCC2)oc2c(-c3ccccc3)cccc12 [LY294002]
effect on basal luciferase activity [1, 10]: effective in reducing | effect on PACAP-induced luciferase activity ([1]; LY294002 10 μM, pre-treated 15 mins, PACAP 100 nM (Supplementary Fig. 4), 24 hours, n = 4): effective in reducing

NCCOB(c1ccccc1)c1ccccc1 [2-APB, 2-aminoethoxydiphenyl borate]
effect on PACAP-stimulated luciferase activity [1]: effectively abolished

CN([C@@H](Cc1ccc(OS(=O)(=O)c2cccc3cnccc23)cc1)C(=O)N1CCN(c2ccccc2)CC1)S(=O)(=O)c1cccc2cnccc12 [KN62]
effect on PACAP-stimulated luciferase activity [1, 11]: suppressed/totally inhibited | effect on basal luciferase activity [1, 12]: suppressed/totally inhibited

Clc1ccc(C(c2ccc(Cl)cc2)n2cc[n+](CC(OCc3ccc(Cl)cc3Cl)c3ccc(Cl)cc3Cl)c2)cc1 (centres unmarked) [calmidazolium]
effect on PACAP-stimulated luciferase activity [1, 11]: suppressed/totally inhibited | effect on basal luciferase activity [1, 12]: suppressed/totally inhibited

Oc1c2ccccc2c2c3c(cccc13)N=N2 [SP600125]
effect on basal luciferase activity [1, 13]: not affected | effect on PACAP-induced luciferase activity [1, 14]: not affected

COC(=O)C1=C(C)NC(C)=C([N+](=O)[O-])C1c1ccccc1C(F)(F)F (centres unmarked) [Bay K8644]
effect on luciferase activity expression [1, 15]: effective in stimulating luciferase activity expression

COC(=O)C1=C(C)NC(C)=C(C(=O)OC)C1c1ccccc1[N+](=O)[O-] [nifedipine]
effect on Forskolin-induced luciferase activity ([1]; nifedipine 10 μM, 24 hrs, n = 4): effective in attenuating | effect on PACAP-induced luciferase activity ([1]; nifedipine 10 μM, oPACAP38 10 nM, 24 hrs, n = 4): effective in attenuating

O=C(O)CN(CCOCCOCCN(CC(=O)O)CC(=O)O)CC(=O)O [EGTA]
effect on Forskolin-induced luciferase activity ([1]; EGTA 1–4 mM, Ca^2+-free medium, 24 hrs, n = 4): suppressed dose-dependently | effect on PACAP-induced luciferase activity ([1]; EGTA 1–4 mM, Ca^2+-free medium, oPACAP38 10 nM, 24 hrs, n = 4): suppressed dose-dependently

CNc1ccc2oc(C[C@H]3O[C@@]4(CC[C@H]3C)O[C@H]([C@H](C)C(=O)c3ccc[nH]3)[C@H](C)C[C@H]4C)nc2c1C(=O)O [A23187]
effect on luciferase activity expression [1, 15]: effective in stimulating luciferase activity expression

N#CC(=C(/N)Sc1ccccc1N)/C(C#N)=C(/N)Sc1ccccc1N [U0126]
effect on basal luciferase activity [1, 13]: not affected | effect on PACAP-induced luciferase activity [1, 14]: not affected

CCCCCCCCCCCCCCCCCCOCC(COP(=O)([O-])OCC[N+](C)(C)C)OC (centres unmarked) [Edelfosine]
effect on PACAP-stimulated luciferase activity ([1]; Edelfosine 20 μM or 2-APB 100 μM, oPACAP38 10 nM, 24 hrs, n = 4): effectively abolished

NCCCCNS(=O)(=O)c1ccc2c(Cl)cccc2c1 [W13]
effect on PACAP-stimulated luciferase activity [1, 16]: suppressed/totally inhibited | effect on basal luciferase activity [1, 12]: suppressed/totally inhibited

COc1ccc2c(c1)CC[C@@H]1[C@@H]2CC[C@]2(C)[C@@H](NCCCCCCN3C(=O)C=CC3=O)CC[C@@H]12 [U73122]
effect on PACAP-stimulated luciferase activity ([1]; U73122 10 μM, pre-treated 15 mins, PACAP 100 nM (Supplementary Fig. 4), 24 hours, n = 4): effectively abolished

COC[C@H]1OC(=O)c2coc3c2[C@@]1(C)C1=C(C3=O)[C@@H]2CCC(=O)[C@@]2(C)C[C@H]1OC(C)=O [Wortmanin]
effect on basal luciferase activity [1, 10]: effective in reducing | effect on PACAP-induced luciferase activity ([1]; Wortmannin 10 nM, oPACAP38 10 nM, 24 hrs, n = 4): effective in reducing

C=C[C@@]1(C)CC(=O)[C@]2(O)[C@@]3(C)[C@@H](O)CCC(C)(C)[C@@H]3[C@H](O)[C@H](OC(C)=O)[C@@]2(C)O1 [Forskolin]
effect on luciferase activity expression ([1]; 24 hrs, Forskolin 10–1000 nM, n = 4): dose-dependently increased

CN(C)CCCn1cc(C2=C(c3c[nH]c4ccccc34)C(=O)NC2=O)c2ccccc21 [GF109203]
effect on PACAP-induced luciferase activity ([1]; GF109203 1 μM, oPACAP38 10 nM, 24 hrs, n = 4): not effective in altering PACAP induction

estrogen
effect on PRL gene transcription [4]: potent stimulator for PRL gene transcription

vasoactive intestinal peptide [VIP]
affinity/specificity at PAC1 receptors [5]: little/very low affinity | effect on PRL gene expression [6]: stimulatory effects | effect on PRL secretion ([7]; ref 8): stimulatory effects | effect on PRL gene expression ([7]; ref 9): stimulatory effects

thyrotropin-releasing hormone [TRH]
effect on PRL promoter ([2]; via pit-1 transactivation): stimulate PRL promoter | effect on PRL promoter activity [3]: suppressed | effect on PRL transcript expression [3]: suppressed

O=S(=O)(NCCNC/C=C/c1ccc(Br)cc1)c1cccc2cnccc12 [H89]
effect on basal luciferase activity [1, 8]: markedly suppressed | effect on oPACAP38-induced luciferase activity [1, 9]: totally abolished

NCCCCCCNS(=O)(=O)c1cccc2c(Cl)cccc12 [W7]
effect on PACAP-stimulated luciferase activity [1, 16]: suppressed/totally inhibited | effect on basal luciferase activity [1, 12]: suppressed/totally inhibited

PACAP6–38
effect on oPACAP38-induced PRL promoter activity ([1]; oPACAP38 10 nM, 24 hr, antagonist PACAP6–38 100 nM (text; legend: 10 nM), n = 4): blocked

CO[C@H]1C[C@@H]2CC[C@@H](C)[C@@](O)(O2)C(=O)C(=O)N2CCCC[C@H]2C(=O)O[C@H]([C@H](C)C[C@@H]2CC[C@@H](O)[C@H](OC)C2)CC(=O)[C@H](C)/C=C(\C)[C@@H](O)[C@@H](OC)C(=O)[C@H](C)C[C@H](C)/C=C/C=C/C=C/1C [rapamycin]
effect on PACAP-induced luciferase activity ([1]; rapamycin 20 nM, oPACAP38 10 nM, 24 hrs, n = 4): attenuated
